Several values for one entry are separate records, joined by “and”; a condition that tells them apart may be missing. Equal values may be shown once.
What was measured:
[1] = tested on: rice; test: Post emergence outdoor plot test No. 3, rice (Example 16); assay type: in vivo; conditions: 45 days, emulsifiable oil
Procedure: Some plots, 12 m^2 each, delimited by artificial levees, were prepared outdoors. AFter soil working and grading, the plots were sowed with Echinocloa spp. on May 18, 1970 and then flooded to a height of 10 cm. with water on May 20, 1970. The same day, rice was sowed in quantities corresponding to 150 kg. of seed per ha. Both rice and Echinocloa emerged from the soil 5 days after the flooding.
When the barnyard grass reached an average height of 12-14 cm., the treatment was effected by uniformly spraying the flooded water surface.
Products being tested: M3432 and molinate, in emulsifiable oil base.
Doses: 0, 4, and 6 kg./ha.
The first effects on Echinocloa spp. were noticed for both products 7 days after treatment, 45 Days after treatment the following was observed: […]

[2] = tested on: rice; test: Rice seed treatment, 5000 square meter field plots, test No. 3, rice (Example 17); assay type: in vivo; conditions: 67 days; for Rice tiller dry weight / Rice tiller number: single 1 m^2 testing area
Procedure: A further test was carried out outdoors on loam soil on plots of about 5000 square meters surface.
After flooding each plot, seeds treated as in Test No. […] In all cases, the seen quantity was 150 kg./ha. 67 days after sowing, the results were gathered on 5 representative testing areas of 1 square meter each for each dosage level.

[3] = Acute oral toxicity, rats; conditions: rat, in vivo, per os

| SMILES | Effect on rice ([1]; 4 kg./ha.) | Effect on rice ([1]; 6 kg./ha.) | Rice tiller dry weight ([2]; 3.4 kg./ha.) | Rice tiller number ([2]; 3.4 kg./ha.) | Rice tiller dry weight, average on 5 testing areas ([2]; 3.6 kg./ha.) | Rice tiller number, average on 5 testing areas ([2]; 3.6 kg./ha.) | Rice tiller dry weight, average on 5 testing areas ([2]; 4.0 kg./ha.) | Rice tiller number, average on 5 testing areas ([2]; 4.0 kg./ha.) | Rice tiller dry weight ([2]; 4.0 kg./ha.) | Rice tiller number ([2]; 4.0 kg./ha.) | LD50 [3] [mg/kg] |
| --- | --- | --- | --- | --- | --- | --- | --- | --- | --- | --- | --- |
| CCSC(=O)N1CCCCCC1 [Molinate, ethyl-1-hexamethylene-imino-carbothiolate, reference compound] | Stronger than the control | Stronger than the control | – | – | – | – | – | – | – | – | – |
| CCC(C)N(C(=O)SCc1ccccc1)C(C)CC (centres unmarked) [M3432, S-benzyl-N,N-disec.butylthiocarbamate] | – | – | 254.50 (g.)/m^2 and 331.10 (g.)/m^2 and 301.08 (g.)/m^2 and 373.50 (g.)/m^2 and 332.00 (g.)/m^2 | 432 (no.)/m^2 and 430 (no.)/m^2 and 421 (no.)/m^2 and 417 (no.)/m^2 and 392 (no.)/m^2 | 318.44 (g.)/m^2 | 418.4 (no.)/m^2 | 438.01 (g.)/m^2 | 559.0 (no.)/m^2 | 473.98 (g.)/m^2 and 316.91 (g.)/m^2 and 484.50 (g.)/m^2 and 423.55 (g.)/m^2 and 491.10 (g.)/m^2 | 599 (no.)/m^2 and 440 (no.)/m^2 and 687 (no.)/m^2 and 523 (no.)/m^2 and 546 (no.)/m^2 | 10200 |

— patent publication US3930838A, “S-benzyl-N,N-disec-butylthiocarbamate and its use as a rice field herbicide and a rice growth stimulant” (priority 1970, dated 1976)
